Reference: ChEMBL document CHEMBL4699392, “Application of triazoles as bioisosteres and linkers in the development of microtubule targeting agents” (RSC Med Chem, 2020)

How the values were obtained:
HeLa = assay: Cytotoxicity against human HeLa cells assessed as reduction in cell viability incubated for 48 hrs by MTT assay; assay type: functional, cell-based
A549 [1] = assay: Cytotoxicity against human A549 cells assessed as reduction in cell viability incubated for 48 hrs by MTT assay; assay type: functional, cell-based; conditions: A549, 48 h
MCF7 = assay: Cytotoxicity against human MCF7 cells assessed as reduction in cell viability incubated for 24 hrs by MTT assay; assay type: functional, cell-based; conditions: MCF7, 24 h
HT-29 = assay: Cytotoxicity against human HT-29 cells assessed as reduction in cell viability incubated for 24 hrs by MTT assay; assay type: functional, cell-based; conditions: HT-29, 24 h
Tubulin [2] = assay: Inhibition of tubulin polymerization (unknown origin) incubated for 1 hr by fluorescence based assay; assay type: protein-complex assay, Homo sapiens
HT-1080 [3] = assay: Cytotoxicity against human HT-1080 cells assessed as reduction in cell viability incubated for 24 hrs by MTT assay; assay type: functional, cell-based; conditions: HT-1080, 24 h
A549 [4] = assay: Cytotoxicity against human A549 cells assessed as reduction in cell viability incubated for 24 hrs by MTT assay; assay type: functional, cell-based; conditions: A549, 24 h
[5] = Cytotoxicity against Cervical carcinoma cell line (unknown origin) assessed as reduction in cell viability incubated for 72 hrs by MTT assay; assay type: functional
[6] = Cytotoxicity against Prostate tumor cell line (unknown origin) assessed as reduction in cell viability incubated for 72 hrs by MTT assay; assay type: functional
[7] = Cytotoxicity against Breast cancer cells (unknown origin) assessed as reduction in cell viability incubated for 72 hrs by MTT assay; assay type: functional, cell-based; conditions: Breast cancer cell line
[8] = Cytotoxicity against Leukemia cell line (unknown origin) assessed as reduction in cell viability incubated for 72 hrs by MTT assay; assay type: functional
[9] = Cytotoxicity against Ovarian cancer cell line (unknown origin) assessed as reduction in cell viability incubated for 72 hrs by MTT assay; assay type: functional
BJAB [10] = assay: Cytotoxicity against human BJAB cells; assay type: functional, cell-based
B16 = assay: Cytotoxicity against mouse B16 cells assessed as reduction in cell viability incubated for 72 hrs by MTT assay; assay type: functional, cell-based; conditions: B16, 72 h
[11] = Inhibition of bovine brain tubulin polymerization by spectrometric analysis; assay type: tissue-based, Bos taurus
BJAB [12] = assay: Cytotoxicity against human BJAB cells assessed as reduction in cell viability incubated for 24 hrs by CASY cell counter method; assay type: functional, cell-based
Sus scrofa = species on record: Sus scrofa; assay: Displacement of fluorescein-colchicine from pig brain tubulin incubated for 1 hr by fluorescence based gel exclusion assay; assay type: tissue-based; conditions: concentration not given here
A549 [13] = assay: Cytotoxicity against human A549 cells; assay type: functional, cell-based
HT-1080 [14] = assay: Cytotoxicity against human HT-1080 cells; assay type: functional, cell-based
SGC-7901 [15] = assay: Cytotoxicity against human SGC-7901 cells; assay type: functional, cell-based
SGC-7901 [16] = assay: Cytotoxicity against human SGC-7901 cells assessed as reduction in cell viability incubated for 24 hrs by MTT assay; assay type: functional, cell-based; conditions: SGC-7901, 24 h
Tubulin [17] = assay: Inhibition of tubulin polymerization (unknown origin) measured for every 1 min interval for 90 mins by fluorescence based assay; assay type: protein-complex assay, Homo sapiens

COc1ccc(S(=O)(=O)Nc2cccnc2Nc2ccc(O)cc2)cc1 [ABT-751]
IC50 (HeLa): 2.18 µM | IC50 (A549 [1]): 1.62 µM

COc1cc(Cc2nnc(S)n2/N=C\c2cccc(Cl)c2Cl)cc(OC)c1OC
IC50 (MCF7): 3.33 µM | IC50 (HT-29): 4.25 µM | IC50 (Tubulin [2]): 0.17 µM | IC50 (HT-1080 [3]): 12.5 µM | IC50 (A549 [4]): 9.71 µM

COc1cc(-c2nncn2-c2ccc3c(ccn3C)c2)cc(OC)c1OC
IC50 [5]: 0.0021 µM | IC50 [6]: 0.0021 µM | IC50 [7]: 0.0021 µM | IC50 [8]: 0.0021 µM | IC50 [9]: 0.0021 µM

CCCCCCCCCCCCCCCCCC(=O)OCc1cn(C2CCc3cc(OC)c(OC)c(OC)c3-c3ccc(OC)c(=O)cc32)nn1 (centres undefined)
IC50 (BJAB [10]): 0.004 µM

O=C(c1cn(Cc2cccc(Oc3ccccc3)c2)nn1)c1cccnc1Nc1ccc(F)cc1
IC50 (Tubulin [2]): 1.84 µM

COc1ccc(/C=C\c2cc(OC)c(OC)c(OC)c2)cc1O [COMBRETASTATIN A4]
IC50 (B16): 56 µM

COc1cc(C(=O)n2nc(-c3ccc(C)cc3)nc2N)cc(OC)c1OC
IC50 [11]: 0.66 µM

CCCCCCCCCCCC(=O)OCc1cn(C2CCc3cc(OC)c(OC)c(OC)c3-c3ccc(OC)c(=O)cc32)nn1 (centres undefined)
IC50 (BJAB [12]): 0.01 µM | inhibition (Sus scrofa): > 80%

CCCCCCCC/C=C\CCCCCCCC(=O)OCc1cn(C2CCc3cc(OC)c(OC)c(OC)c3-c3ccc(OC)c(=O)cc32)nn1 (centres undefined)
IC50 (BJAB [10]): 0.006 µM

COc1cc(/C(=N/O)c2cnn(-c3ccccc3)n2)cc(OC)c1OC
IC50 (A549 [13]): 0.12 µM | IC50 (HT-1080 [14]): 0.12 µM | IC50 (SGC-7901 [15]): 0.12 µM

COc1cccc(-c2nnc3n2N=C(c2ccc(OC)c(N)c2)CS3)c1
IC50 (SGC-7901 [16]): 0.011 µM | IC50 (Tubulin [17]): 1.6 µM | IC50 (HT-1080 [3]): 0.011 µM | IC50 (A549 [4]): 0.011 µM

COc1cc(Nc2ncccc2NC(=O)c2cn(Cc3cccc(Oc4ccccc4)c3)nn2)cc(OC)c1
IC50 (HeLa): 1.33 µM | IC50 (Tubulin [2]): 2.04 µM | IC50 (A549 [1]): 1.02 µM
